Type in all cases: cell-based
The subject of data set [1] is MDA-MB-231 cells. The data set is described as follows: Drug response, cells cultured in hydrogels. Also noted: viability, times higher in cellular dormancy than growth state: dose or concentration left out as unconfirmed. The settings on record: for viability at 4000 µM / viability at 7000 µM / viability at 10000 µM / EC50 / IC50 / viability at 50 µM / viability at 550 µM / viability at 10 µM / viability at 1000 µM / viability at 100 µM: Homo sapiens; for viability at 4000 µM: 4 mM; for viability at 4000 µM / viability at 7000 µM / viability at 10000 µM / viability at 50 µM / viability at 550 µM / viability at 10 µM / viability at 1000 µM / viability at 100 µM: read-out: cell viability (normalized to vehicle control); for viability at 7000 µM: 7 mM; for viability at 10000 µM: 10 mM; for viability at 50 µM: 0.05 mM; for viability at 550 µM: 0.55 mM; for viability at 10 µM: 0.01 mM; for viability at 100 µM: 0.10 mM. The protocol: DOX, PAC, and 5-FU stocks were diluted in medium to desired concentrations: DOX (0.001, 0.01, 0.05, 0.1, 0.55, 1, or 2 mM), PAC (0.05, 0.1, 0.55, or 1 mM), and 5-FU (1.0, 4.0, 7.0, or 10 mM).
At the highest concentrations tested, the DMSO concentration ranged between 1-2% (v/v) for all drugs used. […] Thus, all vehicle controls used in this study contained medium with 1% (v/v) DMSO. […] 15 days post encapsulation, cell-laden hydrogels were rinsed with PBS and transferred to a new well plate for drug exposure for 48 hr. The hydrogels were rinsed twice with PBS to remove excess medium, followed by labeling with a Live/Dead® cell viability kit (Invitrogen) in PBS for 30 min, according to the manufacturer's instructions. The hydrogels were rinsed with PBS for 10 min to remove excess stain. Labeled hydrogels were placed on coverslips and imaged using structured Illumination on a Zeiss AxioObserver Z1 inverted fluorescent microscope as previously described. 32-34 Fluorescent z-stacks (z-height: 150 μm) were acquired approximately at the center of the hydrogels, between the bottom and top surfaces of each sample, and analyzed using FIJI software (NIH). Due to the red autofluorescence of DOX, only the live cells were imaged for viability studies. To quantify cell viability, the number of live cells was normalized to the number of live cells measured in the vehicle control. A minimum of 6 hydrogels were analyzed for each condition.
(§1) For statistical comparison between viability values, distribution normality was assessed via quantification of skewness and kurtosis, where values within ±2 indicated a normal distribution. Equal variance among groups was additionally evaluated. A one-way analysis of variance (ANOVA) with a post-hoc Tukey-Kramer test was implemented to determine statistical significance between multiple groups. Unless otherwise Indicated, p<0.05 was considered statistically significant. Origin Lab software was used to fit DOX viability data. A nonlinear, growth/sigmoidal curve fit using a dose response function with a Levenberg Marquardt iteration algorithm was performed and allowed to converge for all conditions with a chi-square tolerance of 1E-9.

The test system of data set [2] is MDA-MB-231 cells. The data set is described as follows: Drug response, 2D controls on tissue culture plastic. As to conditions: for EC50 / IC50: 2D culture. The protocol:
MDA-MB-231 cells were trypsinized, counted, and seeded in a fibronectin coated (10 μg/mL), 96 well plate at a density of 5,000 cells/well in serum-containing medium. To measure the drug response of cells independent of encapsulation, pre-encapsulation conditions were replicated by allowing the cells to adhere overnight followed by culture in serum-free medium for 48 hr. DOX, PAC, and 5-FU were reconstituted in DMSO to a stock concentration of 172.4, 58.5, and 384.6 mM, respectively. Stock solutions were diluted in medium to a range of concentrations: DOX (0.001, 0.01, 0.1, 1, 10, 100, or 1000 μM), PAC (0.001, 0.01, 0.1, 1, 10, or 100 μM), and 5-FU (0.001, 0.01, 0.1, 1, 10, 100, or 1000 μM) and added to the MDA-MB-231 cells for 48 hr (n=6 wells per concentration). 46 At the highest drug concentration tested, the DMSO concentration remained […]; thus, 0.1% (v/v) DMSO was used as a vehicle control in 2D studies. Cells were rinsed in PBS twice to remove excess medium, followed by labeling with a Live/Dead® cell viability kit (Invitrogen). Only live cells were labeled, as dead cells detached from the wells and were washed away. Labeled cells were imaged using the proper filter cubes and analyzed using FIJI software (NIH).
as §1
The response of MDA-MB-231 cells cultured on standard tissue culture plastic (2D) to DOX, PAC, and 5-FU was quantified as control. MDA-MB-231 cells were cultured on 96 well plates and serum-starved for 48 hr, following the same protocol used for encapsulation for ease of comparison. The MDA-MB-231 cells were exposed to drug-containing medium at the following concentrations (DOX: 0.001, 0.01, 0.1, 1, 10, 100, or 1000 μM; PAC: 0.001, 0.01, 0.1, 1, 10, or 100 μM; and 5-FU: 0.001, 0.01, 0.1, 1, 10, 100, or 1000 μM) for 48 hr. The live MDA-MB-231 cells were fluorescently labeled, imaged, and quantified (FIG. 1).

In data set [3] the test system is MDA-MB-231 cells. Description: Doxorubicin accumulation and nuclear localization. The settings on record: for nuclear to cytoplasmic (N/C) ratio: 48 hr. The protocol: Cells were encapsulated in hydrogel formulations that induced growth, balanced dormancy, or cellular dormancy for 15 days as described above. The medium was replaced with DOX-containing medium at a concentration of 0.05 mM. Four hydrogels for each formulation were imaged at varying time points (1, 2, 3, 5, 12, 20, 24, 48 hr). The mean cellular fluorescence intensity was measured and plotted against time to quantify intracellular DOX accumulation. To calculate the nuclear to cytoplasmic ratio, the fluorescence intensity measurements of the cytoplasmic and nuclear regions were acquired for each cell, with at least 70 cells measured per image. Due to its mechanism of action, DOX is known to primarily localize to the nucleus of DOX-sensitive cell lines. Studies quantifying DOX localization in multiple cell lines show alignment between high fluorescence intensity and the nucleus. Additionally, nuclear location was approximated based on areas of high fluorescence intensity with distinct morphological features (size, location).

Setting [4] is: MDA-MB-231, 48 h, balanced dormancy, 48 hr.
Where [5] appears, read: MDA-MB-231, 48 h, cellular dormancy, 48 hr.
The mark [6] stands for this setting: MDA-MB-231, 48 h, growth state, 48 hr.
Where [7] appears, read: MDA-MB-231, 48 h, balanced dormancy hydrogel, 48 hr.
[8] abbreviates: MDA-MB-231, 48 h, cellular dormancy hydrogel, 48 hr.
The mark [9] stands for this setting: MDA-MB-231, 48 h, growth state hydrogel, 48 hr.
Where [10] appears, read: MDA-MB-231, range over the three hydrogel formulations.
The mark [11] stands for this setting: Homo sapiens, MDA-MB-231, 48 hr.
The mark [12] stands for this setting: Homo sapiens, MDA-MB-231, 2D, 48 hr, read-out: cell viability.

Molecules are shown by their SMILES. Read-outs that look alike come from different tables or passages of the source. Some results are limits rather than exact numbers.

For orientation: viability means a read-out of living cells in per cent, often relative to untreated cells. One may read the EC50 as the concentration giving half of the maximal effect. Usually IC50 stands for the concentration that inhibits the measured activity by half.

Consider `O=c1[nH]cc(F)c(=O)[nH]1` [5-FU, 5-fluorouracil], for which the viability at 4000 µM in the data set on MDA-MB-231 cells [1] (setting [4]) turned out to be 92 ± 4%; in the data set with MDA-MB-231 cells [1] (setting [5]), 100 ± 6%. The viability at 7000 µM was over 90% with MDA-MB-231 cells [1] (MDA-MB-231, 48 h, both dormant states, 48 hr) and 80 ± 2% in the data set with MDA-MB-231 cells [1] (setting [6]). Further, the viability at 10000 µM with MDA-MB-231 cells [1] (setting [5]) is 99 ± 4%; with MDA-MB-231 cells [1] (MDA-MB-231, 48 h, either dormant state, 48 hr), over 93%; with MDA-MB-231 cells [1] (setting [6]), 75 ± 5%. Besides, in the data set with MDA-MB-231 cells [1] (dormant cells, all concentrations tested), the “cell viability (normalized to vehicle control)” value was over 90%. This compound came in with an EC50 in the data set with MDA-MB-231 cells [2] (Homo sapiens, MDA-MB-231, 48 h) of 1.81 µM. Moreover, the viability at 1000 µM in the data set on MDA-MB-231 cells [2] (Homo sapiens, MDA-MB-231, 2D, 1 mM, 48 hr, read-out: cell viability) is 65 ± 3%.

Take `COc1cccc2c1C(=O)c1c(O)c3c(c(O)c1C2=O)C[C@@](O)(C(=O)CO)C[C@@H]3O[C@H]1C[C@H](N)[C@H](O)[C@H](C)O1` [DOX, doxorubicin]: in the data set on MDA-MB-231 cells [1], the “fold increase in IC50, balanced dormancy vs growth state” value stood at 1.3 fold. In addition, the “fold increase in IC50, cellular dormancy vs growth state” value in the data set with MDA-MB-231 cells [1] is 1.8 fold. In addition, in the data set with MDA-MB-231 cells [1] (0.55), the “viability, times higher in cellular dormancy than growth state” value is 4-6 times. Moreover, the EC50 in the data set on MDA-MB-231 cells [1] (setting [7]) was 67.6 µM; with MDA-MB-231 cells [1] (setting [8]), 83.3 µM; in the data set with MDA-MB-231 cells [1] (setting [9]), 43.6 µM; in the data set with MDA-MB-231 cells [1] (setting [10]), 47.4 to 83.3 µM; in the data set on MDA-MB-231 cells [2] (Homo sapiens, MDA-MB-231, 48 h) it was 0.006 µM. The IC50 in the data set with MDA-MB-231 cells [1] (setting [7]) was 58.3 µM; in the data set on MDA-MB-231 cells [1] (setting [8]), 79.9 µM; in the data set on MDA-MB-231 cells [1] (setting [9]) it was 43.6 µM; with MDA-MB-231 cells [1] (setting [10]), 43.6 to 79.9 µM; with MDA-MB-231 cells [2] (setting [11]) it was 0.007 µM. Further, the viability at 50 µM turned out to be 57 ± 2% in the data set on MDA-MB-231 cells [1] (setting [4]), 62 ± 5% in the data set with MDA-MB-231 cells [1] (setting [5]) and 44 ± 3% with MDA-MB-231 cells [1] (setting [6]). Also, the viability at 550 µM in the data set with MDA-MB-231 cells [1] (setting [4]) amounted to 16 ± 1%; in the data set with MDA-MB-231 cells [1] (setting [5]), 24 ± 3%; in the data set on MDA-MB-231 cells [1] (setting [6]), 5 ± 1%. Also, the viability at 10 µM with MDA-MB-231 cells [1] (setting [5]) turned out to be 91 ± 12%; in the data set with MDA-MB-231 cells [1] (setting [6]), 82 ± 1%. Also, the viability at 100 µM in the data set with MDA-MB-231 cells [2] (setting [12]) came to 1%. Further, the “fold decrease in nuclear localization, dormant vs growth state” value in the data set on MDA-MB-231 cells [3] is on record as 1.5 fold. In addition, in the data set with MDA-MB-231 cells [3] (0.05 mM, over 48 hr), the “intracellular accumulation (mean fluorescence intensity) between the three phenotypic states” value is “no statistically significant differences”. The “nuclear to cytoplasmic (N/C) ratio” value with MDA-MB-231 cells [3] (balanced dormancy, 0.05 mM) turned out to be 2.3±0.8; with MDA-MB-231 cells [3] (cellular dormancy, 0.05 mM), 2.4±1.0; in the data set on MDA-MB-231 cells [3] (growth state, 0.05 mM), 3.5±2.3.

On to `C[S+](C)[O-]` [DMSO, Dimethyl Sulfoxide], for which, in the data set with MDA-MB-231 cells [1] (1 or 2% (v/v), growth hydrogel formulation, 48 hr), the “cell viability vs serum-containing medium” value is on record as “no significant differences”. Also, in the data set with MDA-MB-231 cells [1] (18%, 26% (v/v)), the cytotoxicity entry was “cytotoxic”.

As to `CC(=O)O[C@H]1C(=O)[C@@]2(C)[C@H]([C@H](OC(=O)c3ccccc3)[C@]3(O)C[C@H](OC(=O)[C@H](O)[C@@H](NC(=O)c4ccccc4)c4ccccc4)C(C)=C1C3(C)C)[C@]1(OC(C)=O)CO[C@@H]1C[C@@H]2O` [PAC, paclitaxel], the viability at 550 µM was 86 ± 5% in the data set with MDA-MB-231 cells [1] (setting [4]), 84 ± 5% with MDA-MB-231 cells [1] (setting [5]) and 51 ± 4% in the data set with MDA-MB-231 cells [1] (setting [6]). Also, the viability at 1000 µM in the data set on MDA-MB-231 cells [1] (MDA-MB-231, 48 h, balanced dormancy, 1.00 mM, 48 hr) was 72 ± 3%; in the data set on MDA-MB-231 cells [1] (MDA-MB-231, 48 h, cellular dormancy, 1 mM, 48 hr), 75 ± 3%; in the data set on MDA-MB-231 cells [1] (MDA-MB-231, 48 h, dormant cells (either state), 1 mM, 48 hr), over 72%; with MDA-MB-231 cells [1] (MDA-MB-231, 48 h, growth state, 1 mM, 48 hr), 39 ± 4%. In addition, the viability at 100 µM was 91 ± 6% in the data set on MDA-MB-231 cells [1] (setting [5]), 55 ± 4% with MDA-MB-231 cells [1] (setting [6]) and 6 ± 2% in the data set with MDA-MB-231 cells [2] (setting [12]). Also, the EC50 in the data set with MDA-MB-231 cells [2] (48 hr) worked out at 0.761 µM; in the data set with MDA-MB-231 cells [2] (Homo sapiens, MDA-MB-231, 48 h), 0.716 µM. In the data set on MDA-MB-231 cells [2] (setting [11]), the IC50 amounted to 0.651 µM. The viability at 0.01 µM with MDA-MB-231 cells [2] (Homo sapiens, MDA-MB-231, 2D, 0.01 μM, 48 hr, read-out: cell viability) worked out at 94 ± 13%.

The record behind these values is patent US12077741B2, “Crosslinked hydrogel compositions for regulating states of encapsulated cancer cells” (University Of Delaware, priority 2017, dated 2024).
